Where two headings read alike, the source gives them in different places.
Experiments:
[1] = design: method as in PMID 33620222; conditions: n = 4, mean ± SEM, cited from earlier work
[2] = Single-dose pharmacokinetics of concomitant cannabidiol product and kratom product; type: in vivo, male Sprague-Dawley rats; conditions: for AUC(0-t): read-out: AUC0–24; for AUC0–∞/dose / CL/F / Vd/F: Single-Dose; for AUC0–∞/dose: dose-normalized; for CL/F / Vd/F: plasma; for CL/F: read-out: CL/F (apparent oral clearance) (converted); for Vd/F: read-out: V/F (apparent volume of distribution)
Method: (§1) Male Sprague-Dawley rats (weight 250 ± 25 g) were obtained from Envigo (Indianapolis, IN, USA) with indwelling jugular vein catheters. Animals were acclimated for ≥72 h in a temperature- and humidity-controlled vivarium on a 12 h light/dark cycle. All studies were approved by the University of Florida’s Institutional Animal Care and Use Committee (IACUC) and carried out in accordance with Association for Assessment and Accreditation of Laboratory Animal Care International (AAALAC) and National Institute of Health (NIH) guidelines. In the single-dose studies, rats were fasted for 10 h prior to dosing and an additional 2 h post-dose.
(§2) For the single-dose study, rats were pretreated with 50 mg/kg cannabidiol by oral gavage and, after 30 min, were dosed with 0.8 mL/kg OPMS Gold solution. A period of 30 min was observed between doses to reduce the likelihood of interactions between the formulations in the stomach. Rats were connected to an automatic blood collection system (BASi, West Lafayette, IN, USA), and blood samples were taken pre-kratom product dose and 0.08, 0.17, 0.25, 0.5, 1, 2, 3, 4, 6, 8, 12, 18, 24, 30, 36, 42, and 48 h after kratom product dose administration. For the multiple-dose study, rats were pretreated with 25 mg/kg cannabidiol and, after 30 min, were dosed with 0.4 mL/kg OPMS Gold solution every 12 h (0900 and 2100) for a period of 4 days. Blood samples were taken prior to the 0900 dose (24, 48, 72, 96 h). […] Plasma was separated from blood by centrifugation at 850× g for 10 min at 4 °C. Samples were stored at −20 °C until analysis.
(§3) Standards were prepared by adding 2.0 μL of CS or QC stock to 18 μL of blank rat plasma. This generated eight calibration standards (5–500 ng/mL) and four QC standards (5, 8, 200, and 400 ng/mL). After spiking, the standards were vortex-mixed for 5 min at 650 rpm. Analytes were precipitated with 80 μL methanol acidified with 0.05% formic acid containing 25 ng/mL IS-1 and IS-2 (Quenching Solution; QS). Samples were transferred to a 96-well filter plate and centrifuged at 850× g for 2 min at 4 °C. Study samples were prepared in the same manner by aliquoting 20 μL and adding 80 μL QS prior to vortex mixing and filtration.
(§4) Samples were analyzed using previously validated ultraperformance liquid chromatography-tandem mass spectrometry (UPLC-MS/MS) methods for the quantification of cannabinoids and alkaloids in rat plasma. Both methods used a Waters Acquity I-Class UPLC coupled to a Xevo TQ-S micro mass spectrometer (Waters, Milford, MA, USA). The source gas was nitrogen, and the collision gas was argon. The autosampler was maintained at 10 °C.
(§5) For the cannabinoid bioanalytical method, a 1.7 µm, 2.1 x 100 mm C18 BEH column was utilized with a pre-column of the same chemistry (Waters, Milford, MA, USA) held at 40 °C. […] Cannabidiol was detected in positive electrospray ionization mode using multiple reaction monitoring.
(§6) For the peak separations of kratom alkaloids required for quantification, a 1.7 µm, […] × 100 mm C18 BEH column with a pre-column of the same chemistry (Waters, Milford, MA, USA) was utilized and held at 50 °C throughout the analysis. A gradient elution was used with mobile phase of aqueous ammonium acetate buffer [2.5 mM, pH 3.5 (A)] and acetonitrile (B). The gradient was held at 90% A for 1 min and decreased to 60% by 10 min. From 10 to 10.5 min, the percent of A was decreased sharply to 30% and was then set to initial conditions from 10.5 to 11 min to re-equilibrate the column. The alkaloids were detected in positive electrospray ionization mode using multiple reaction monitoring.
The TargetLynx™ application of MassLynx™ was used for data processing and quantification of the UPLC-MS/MS data (Waters, Milford, MA, USA). Phoenix Version 6.4 (Certara, Princeton, NJ, USA) was used to perform a non-compartmental analysis of concentration–time data. GraphPad Prism Version 8 (GraphPad Software, San Diego, CA, USA) was used to generate all figures. […]

[3] = Multiple-dose (steady-state) pharmacokinetics of concomitant cannabidiol and kratom product; type: in vivo, male Sprague-Dawley rats; conditions: mean ± SEM; for Accumulation Index / Fluctuation / concentration at 5 days / AUC(0-inf) / AUC / Cmax at 5 days: 5-day q12 h oral 25 mg/kg cannabidiol and kratom product (Eq. 4.7 mg/kg mitragynine); for AUC0–∞/dose / CL/F at 5 days / Vd/F at 5 days: Multiple-Dose; for AUC0–∞/dose: dose-normalized; for concentration at 5 days / CL/F at 5 days / Vd/F at 5 days / AUC(0-inf) / AUC / Cmax at 5 days: male, Sprague-Dawley, rat; for concentration at 5 days / CL/F at 5 days / Vd/F at 5 days / AUC(0-inf) / AUC: plasma; for concentration at 5 days: oral; for CL/F at 5 days / Vd/F at 5 days: po; for CL/F at 5 days: read-out: CL/F (apparent oral clearance) (converted); for Vd/F at 5 days: read-out: V/F (apparent volume of distribution); for AUC(0-inf): from time 0 (96 h) extrapolated to infinity; for AUC: over the dosing interval (12 h); for Cmax at 5 days: maximum plasma concentration at steady-state
Method: as §1, §2, §3, §4, §5, §6
The TargetLynx™ application of MassLynx™ was used for data processing and quantification of the UPLC-MS/MS data (Waters, Milford, MA, USA). Phoenix Version 6.4 (Certara, Princeton, NJ, USA) was used to perform a non-compartmental analysis of concentration–time data. GraphPad Prism Version 8 (GraphPad Software, San Diego, CA, USA) was used to generate all figures.

[4] = Single oral dose pharmacokinetics of cannabidiol product alone; type: in vivo, male Sprague-Dawley rats; conditions: male, Sprague-Dawley, rat, cannabidiol in plasma, single oral dose of cannabidiol product alone (50 mg/kg), n = 4, mean ± SEM
[5] = Single oral dose pharmacokinetics of kratom product alone (control data from Kamble et al.); conditions: without cannabidiol
[6] = minor kratom alkaloid/metabolite in plasma, single oral dose of kratom product alone
[7] = male, Sprague-Dawley, rat, po, minor kratom alkaloid/metabolite in plasma, single concomitant dose of cannabidiol and kratom product, n = 5, mean ± SEM
[8] = male, Sprague-Dawley, rat, po, minor kratom alkaloid/metabolite in plasma, single concomitant dose of cannabidiol and kratom product, n = 5, mean ± SEM, read-out: Cmax
[9] = average plasma concentration at steady-state, read-out: Cavg,ss
[10] = minimum plasma concentration at steady-state, read-out: Cmin,ss
[11] = cannabidiol, cannabidiol plus kratom product vs cannabidiol product alone, single dose
[12] = male, Sprague-Dawley, rat, po, mean ± SEM
[13] = male, Sprague-Dawley, rat, cannabidiol in plasma, single concomitant oral dose of cannabidiol product (50 mg/kg) and kratom product (9.4 mg/kg mitragynine), n = 5, mean ± SEM
[14] = minor kratom alkaloid/metabolite in plasma, single concomitant dose of cannabidiol and kratom product, n = 5, mean ± SEM
[15] = mitragynine in plasma, single oral dose of kratom product alone (9.6 mg/kg mitragynine)
[16] = male, Sprague-Dawley, rat, mitragynine in plasma, single concomitant oral dose of cannabidiol product (50 mg/kg) and kratom product (9.4 mg/kg mitragynine), n = 5, mean ± SEM

| SMILES | AUC0–24 [1, 6] | Cmax [1, 6] | Tmax [1, 6] | Tmax [2, 7] | AUC(0-t) [2, 7] | Cmax [2, 8] | Accumulation Index [3] | Fluctuation [3] | AUC0–∞/dose [3] | concentration at 5 days [3, 9] | concentration at 5 days [3, 10] | CL/F at 5 days [3] | Vd/F at 5 days [3] | AUC(0-inf) [3] | AUC [3] | Cmax at 5 days [3] | AUC0–∞/dose ([2]; mean ± SEM) | CL/F [2, 12] | Vd/F [2, 12] | further results |
| --- | --- | --- | --- | --- | --- | --- | --- | --- | --- | --- | --- | --- | --- | --- | --- | --- | --- | --- | --- | --- |
| CC[C@@H]1CN2CCc3c([nH]c4cccc(OC)c34)[C@H]2C[C@@H]1/C(=C\OC)C(=O)OC [Speciociliatine, speciociliatine] | 222.7 ± 22.2 ng·h/mL | 23.8 ± 1.4 ng/mL | 3.2 ± 1.6 h | 17 ± 5.9 h | 990 ± 93.7 ng·h/mL | 68.1 ± 5.9 ng/mL |  |  |  |  |  |  |  |  |  |  |  |  |  |  |
| C=C(C)[C@@H]1CCC(C)=C[C@H]1c1c(O)cc(CCCCC)cc1O [Cannabidiol] |  |  |  |  |  |  | 1.8 ± 0.0 | 219.0 ± 42.7% | 140.8 ± 34.0 ng·h/mL/mg/kg | 204 ± 51.3 ng/mL | 80.9 ± 23.7 ng/mL | 217 mL/min/kg | 192 ± 42.1 L/kg | 3520 ± 851 ng·h/mL | 2450 ± 615 ng·h/mL | 489 ± 96.2 ng/mL | 97.8 ± 18.5 ng·h/mL/mg/kg | 192 mL/min/kg | 164 ± 26.3 L/kg | AUC0–24 Fold Change (90% CI Ratio) [2, 11]: 1.0 (0.8, 1.1); Cmax Fold Change (90% CI Ratio) [2, 11]: 0.8 (0.7, 0.9); range of 90% confidence interval values of AUC0–24 fold change ([2]; cannabidiol, coadministration with kratom vs cannabidiol alone, single dose): 0.8–1.1; Tmax [2, 13]: 6.3 ± 1 h; AUC(0-t) [2, 13]: 4180 ± 614 ng·h/mL; Cmax ([2]; male, Sprague-Dawley, rat, cannabidiol in plasma, single concomitant oral dose of cannabidiol product (50 mg/kg) and kratom product (9.4 mg/kg mitragynine), n = 5, mean ± SEM, read-out: Cmax): 491 ± 69.2 ng/mL; Cmax [4]: 589 ± 38.3 ng/mL; Tmax [4]: 3.8 ± 1.5 h; AUC(0-t) ([4]; read-out: AUC0–24): 4400 ± 319 ng·h/mL |
| C=C[C@H]1CN2CCc3c([nH]c4cccc(OC)c34)[C@@H]2C[C@@H]1/C(=C\OC)C(=O)OC [Paynantheine, paynantheine] |  | 3.0 ± 1.7 ng/mL | 0.08 ± 0.0 h | 16.2 ± 4.9 h | 290 ± 96.4 ng·h/mL | 19.8 ± 5.8 ng/mL |  |  |  |  |  |  |  |  |  |  |  |  |  |  |
| CC[C@@H]1CN2CC[C@@]3(O)C(=Nc4cccc(OC)c43)[C@@H]2C[C@@H]1/C(=C\OC)C(=O)OC [7-hydroxymitragynine] | 41.0 ± 7.6 ng·h/mL | 4.0 ± 0.6 ng/mL | 3.1 ± 1.7 h |  |  |  |  |  |  |  |  |  |  |  |  |  |  |  |  | AUC0–24 [2, 14]: 189.2 ± 27.7 ng·h/mL; Cmax [2, 14]: 17.5 ± 2.3 ng/mL; metabolite to parent (mitragynine) exposure ratio percent ([2]; with cannabidiol, single concomitant dose of cannabidiol and kratom product): 3.5%; metabolite to parent (mitragynine) exposure ratio percent [5]: 3.1% |
| CC[C@@H]1CN2CCc3c([nH]c4cccc(OC)c34)[C@@H]2C[C@@H]1/C(=C\OC)C(=O)OC [Mitragynine, mitragynine] |  |  |  |  |  |  | 1.4 ± 0.1 | 90.0 ± 11.3% | 605.8 ± 153.1 ng·h/mL/mg/kg | 151 ± 34.7 ng/mL | 91.1 ± 24.9 ng/mL | 51.7 mL/min/kg | 28.7 ± 3.7 L/kg | 2910 ± 735 ng·h/mL | 1810 ± 417 ng·h/mL | 218 ± 40 ng/mL | 578.6 ± 187.9 ng·h/mL/mg/kg | 38.3 mL/min/kg | 25.8 ± 7.5 L/kg | AUC0–24 [1, 15]: 1306.8 ± 126.1 ng·h/mL; Cmax [1, 15]: 111.9 ± 15.6 ng/mL; Tmax [1, 15]: 3.1 ± 1.7 h; Fluctuation ([3]; listed as mitragynine): ~100%; Tmax [2, 16]: 17 ± 4.6 h; AUC(0-t) [2, 16]: 5350 ± 1150 ng·h/mL; Cmax ([2]; male, Sprague-Dawley, rat, mitragynine in plasma, single concomitant oral dose of cannabidiol product (50 mg/kg) and kratom product (9.4 mg/kg mitragynine), n = 5, mean ± SEM, read-out: Cmax): 253 ± 68.3 ng/mL |

Reference: publication PMC10974275, “Pharmacokinetic Interaction of Kratom and Cannabidiol in Male Rats” (Pharmaceutics, 2024)
